The record followed here is patent US20220348565A1, “PHARMACEUTICAL COMPOUNDS” (SENTINEL ONCOLOGY LIMITED, priority 2019, published 2022).

What is called IC50 is the concentration needed to halve the response being measured. For orientation: GI50 means the concentration at which growth is held to half of that of the control.

Where a name gives a salt, the structure may show the parent alone. Read-outs that look alike come from different tables or passages of the source. Some results are limits rather than exact numbers.

In series [1] the test system is U87MG cells. Put plainly: Mitotic phenotype study in U87MG cells. In kind it is cell-based, human. The following applies: 0.03 μM, listed as A-1. The procedure:
Distinct mitotic phenotypes are induced following inhibition of PLK1 and PLK4 in cells. […] Centriole assembly is controlled by PLK4, with inhibitors inducing a multipolar spindle phenotype due to centrosome defects which results in abnormal cyokinesis (Wong et al., 2015. Science 348(6239); 1155-1160). Cells were plated at 10 000/well in 96-well plates and incubated overnight. The following day atropisomer A-2 stocks in DMSO were diluted in medium then added to cells with a maximum final DMSO concentration on cells of 0.2%. Cells were incubated with the compound for 24 hours then fixed in 3.7% formaldehyde. Cells were permeabilised with 0.1% Triton X-100 then incubated with anti-phospho-histone H3 (Ser10) antibody (Abcam). The cells were washed with PBS then incubated with AlexaFluor 488 labelled goat anti-rabbit IgG (Invitrogen) in the presence of 4 ug/mL Hoechst 33342 (Invitrogen). Cells were washed in PBS then imaged on an Arrayscan VTi HCS instrument using the Target Activation V4 Bioapplication. A user-defined threshold was applied to identify mitotic cells based on the intensity of phospho-histone H3 staining. In a separate study, following the above protocol and using single compound concentrations of 0.03 μM for each of atropisomer A-1 and atropisomer A-2, the frequency of observed mitotic phenotypes in U87MG cells was manually assessed and classified into the following phenotypes: non-congressed chromosomes, multipolar spindles/abnormal cytokinesis, monopolar spindles, normal prometaphase, normal metaphase for each of A-1 and A-2.

The nature of series [2]: Chiral stability (interconversion) of isolated atropisomers on heating, chiral HPLC. In kind it is physicochemical. The following applies: for % ee of sample @ 40° C. / % ee sample @ 80° C.: EtOH solution, listed as A-1. The procedure: Stability studies were carried out on the isolated atropisomers, atropisomers A-1 and A-2. To assess the interconversion of atropisomer A-1 and atropisomer A-2 chiral stability was monitored at 40° C. and 80° C. […] 1. 2×1 mg of pure atropisomer was dissolved in 1 mL of EtOH in a sealed-dram vial. 2. One set of vials was heated at 40° C. and another set at 80° C. 3. […] 4. Analysis was carried out at the following timepoints: 0 h, 24 h, 48 h, 72 h, 96 h and 240 h for the samples kept at 40° C. and 24 h, 96 h and 240 h for the samples kept at 80° C. using Chiral HPLC method 5

For series [3], the system named is panel of 48 cancer-derived cell lines. Kind of series: Proliferation assay on diverse cancer cell line panel, CellTiter-Glo, 72 hours. Type of series: cell-based. The following applies: 72 hours. The procedure: Screening against diverse cancer cell lines was performed to identify tumour types displaying sensitivity to atropisomers A-1 and A-2. A panel of 48 cancer-derived cell lines was screened in a high-throughput proliferation assay using dilutions of atropisomers A-1/A-2. Cell lines that were screened included those representing cancer of the pancreas, large intestine/colorectum, lung, brain and nerves, and lymphoma and leukaemia cell lines. Cell lines were treated with serial half-log dilutions of compound and assayed 72 hours later for proliferation using CellTiter-Glo Assay (Promega). IC50 values were calculated by fitting the dose-response data using a nonlinear regression model.
For orientation: In ATP-based viability assays light output follows the ATP content of the culture.

Series [4] relates to U87MG cells. Kind of series: U87MG human glioblastoma cell viability, SRB assay, 72 hours. Type of series: cell-based. The procedure: The following protocol was used to measure the effects of compounds of the invention on U87MG cell viability.
U87MG cells were grown in their recommended growth media/supplements (ATCC). Cells were seeded at a concentration of 5000 cells per well into 96 well plates overnight at 37° C., 5% CO2. Cells were treated with relevant concentrations of test compound for 72 hours. After 72 hours incubation, viability was established using sulforhodamine B (SRB) colorimetric assay. Percentage viability was calculated against the mean of the DMSO treated control samples, and IC50 values for inhibition of cell growth were calculated using GraphPad Prism software by nonlinear regression (4 parameter logistic equation).
In general terms: The SRB assay estimates cell density from bound dye.

Series [5] concerns wild-type KRAS HeLa cells. Put plainly: HeLa cell viability, wild-type KRAS transgene, Cell Titre Blue. Type of series: cell-based. The following applies: 72 hours, listed as A-4, read-out: WT GI50. The procedure:
(§1) Atropisomers A-1, A-2, A-3 and A-4 were tested on HeLa cells engineered to inducibly express wild-type or oncogenic KRasG12V transgenes using the FLP-in/T-Rex system (Invitrogen). Cells were plated, and then treated with or without Doxycycline to induce transgene expression, and then treated with serially-diluted PBD inhibitors. After 72 hours of incubation, cell viability was assessed using the Cell Titre Blue reagent (Promega) and a BMG Pherastar plate reader. The effect of PBD inhibition on cell viability with either wild-type or oncogenic G12V KRAS was assessed using GraphPad Prism.
(§2) From the results obtained by following the above protocol, the GI50 values against the wild-type and KRAS G12V HeLa cell line of each of the atropisomers were determined as shown in Table 12.

The subject of the next series is KRAS G12V HeLa cell line. Kind of series: HeLa cell viability, oncogenic KRasG12V transgene, Cell Titre Blue. In kind it is cell-based. The following applies: KRAS G12V HeLa cells, 72 hours; listed as A-4. The procedure:
as §1, §2

Series [6] in a line: Gravimetric vapour sorption (GVS). Type of series: physicochemical. The settings on record: at 90% RH. The procedure: Sorption isotherms were obtained using a Hiden Isochema moisture sorption analyser (model IGAsorp), controlled by IGAsorp Systems Software V6.50.48. The sample was maintained at a constant temperature (25° C.) by the instrument controls. The humidity was controlled by mixing streams of dry and wet nitrogen, with a total flow of 250 ml·min-1. The instrument was verified for relative humidity content by measuring three calibrated Rotronic salt solutions (10-50-88%). The weight change of the sample was monitored as a function of humidity by a microbalance (accuracy +/−0.005 mg). A defined amount of sample was placed in a tared mesh stainless steel basket under ambient conditions. A full experimental cycle typically consisted of three scans (sorption, desorption and sorption) at a constant temperature (25° C.) and 10% RH intervals over a 0-90% range (60 minutes for each humidity level).

Series [7] is described as follows: Gravimetric solubility in water. In kind it is physicochemical. The procedure: The solubility in water of the salts was measured using a gravimetric solubility protocol.
1 ml of water was charged into crystallisation tubes. The solid was weighed into a tared glass vial, added in portions to the solutions and the vial weighed after each addition until a hazy solution was observed. The amount in mg was then calculated to give the solubility in mg/ml.
The solubility in water of the salts was measured using a gravimetric solubility protocol. Thus, 1 ml of water was charged into crystallisation tubes. The solid was weighed into a tared glass vial, added in portions to the solutions and the vial weighed after each addition until a hazy solution was observed. The amount in mg was then calculated to give the solubility in mg/mL.

Take `CN(C)CCNC(=O)c1ccc(-c2ccc(-c3ccc(Cl)cc3)n2-c2ccccc2C(F)(F)F)cc1` (single isomer, unassigned) [Atropisomer A-1, 4-[5-(4-chlorophenyl)-1-[2-(trifluoromethyl)phenyl]pyrrol-2-yl]-N-[2-(dimethylamino)ethyl]benzamide]: the “cells with abnormal cytokinesis” value in the series with U87MG cells [1] was 24%. For the same molecule, in the series on U87MG cells [1], the “cells with non-congressed chromosomes” value is “No evidence”. The “cells with normal mitotic phenotype” value in the series on U87MG cells [1] was found to be 76%. The “% ee of sample @ 40° C.” value in series [2] (0 h), in series [2] (24 h), in series [2] (48 h), in series [2] (72 h), in series [2] (96 h) and in series [2] (10 days) was 100 % ee throughout. For the same molecule, the “% ee sample @ 80° C.” value in series [2] (0 h), in series [2] (24 h), in series [2] (96 h) and in series [2] (10 days) was 100 % ee throughout. Moreover, in series [2] (from stability of isolated atropisomers), the “atropisomer classification (LaPlante)” value is given as “Class 3”. In addition, the “interconversion / racemization of atropisomers on heating” value in series [2] (heating for 10 days at 40° C. and 80° C.) is given as “no interconversion was observed”. In addition, the IC50 in series [3] (A549, Lung) is 9.19 µM; in series [3] (A-172, Brain & Nerves), 7.07 µM; in series [3] (AsPC-1, Pancreas) it was more than 10 µM; in series [3] (BxPC-3, Pancreas), 6.97 µM; in series [3] (COLO 205, Large intestine/Colorectum) it was 6.75 µM; in series [3] (Capan-1, Pancreas) it was more than 10 µM. In addition, the IC50 in series [3] (D283 Med, Brain & Nerves) was found to be 9.26 µM; in series [3] (DOHH-2, Blood/Lymphoma), 5.64 µM; in series [3] (Daoy, Brain & Nerves), 7 µM; in series [3] (Daudi, Blood/Lymphoma) it was 7.17 µM; in series [3] (GRANTA-519, Blood/Lymphoma) it was 7.42 µM; in series [3] (HBL-1, Blood/Lymphoma) it was 9.94 µM. The IC50 was 8.26 µM in series [3] (HCC44, Lung); 7.36 µM in series [3] (HOT 116, Large intestine/Colorectum, listed as A-1); 4.53 µM in series [3] (HT-29, Large intestine/Colorectum); 4.71 µM in series [3] (JVM-2, Blood/Lymphoma); 7.94 µM in series [3] (JeKo-1, Blood/Lymphoma); more than 10 µM in series [3] (KG-1, Blood/Leukaemia). Also, the IC50 is 5.13 µM in series [3] (Kasumi-1, Blood/Leukaemia); 7.37 µM in series [3] (LN-229, Brain & Nerves); 8.36 µM in series [3] (LoVo, Large intestine/Colorectum); 9.17 µM in series [3] (MIA PaCa-2, Pancreas); 4.01 µM in series [3] (ML-2, Blood/Leukaemia, listed as A-1); 6.49 µM in series [3] (MV-4-11, Blood/Leukaemia). In addition, the concentration for half-maximal inhibition (IC50) in series [3] (NAMALWA, Blood/Lymphoma) is 7.05 µM; in series [3] (NCI-H460, Lung), 8.13 µM; in series [3] (NCI-H1299, Lung), 8.25 µM; in series [3] (NCI-H1373, Lung), more than 10 µM; in series [3] (NCI-H1792, Lung), 7.73 µM; in series [3] (NCI-H1975, Lung), 5.14 µM. The IC50 is 6.67 µM in series [3] (OCI-LY-19, Blood/Lymphoma); more than 10 µM in series [3] (PANC-1, Pancreas); 9 µM in series [3] (Panc 10.05, Pancreas); 6.17 µM in series [3] (RKO, Large intestine/Colorectum); 3.91 µM in series [3] (Raji, Blood/Lymphoma); 3.99 µM in series [3] (Ramos, Blood/Lymphoma). For the same molecule, the IC50 in series [3] (SK-MES-1, Lung) worked out at 7.78 µM; in series [3] (SU-DHL-2, Blood/Lymphoma), 7.01 µM; in series [3] (SU-DHL-6, Blood/Lymphoma) it was 3.98 µM; in series [3] (SVV620, Large intestine/Colorectum, listed as A-1), 8.35 µM; in series [3] (SW480, Large intestine/Colorectum), 7.55 µM; in series [3] (SW1088, Brain & Nerves), 8.49 µM. In addition, the IC50 was 5.26 µM in series [3] (T98G, Brain & Nerves); more than 10 µM in series [3] (Toledo, Blood/Lymphoma); 7.6 µM in series [3] (U118 MG, Brain & Nerves); 4.47 µM in series [3] (U-2932, Blood/Lymphoma); 6.74 µM in series [3] (WSU-DLCL2, Blood/Lymphoma); 7.04 µM in series [3] (Z-138, Blood/Lymphoma). In addition, it took 4.6 µM to reach half-maximal inhibition in the series on U87MG cells [4] (IC50).

Take `CN(C)CCNC(=O)c1ccc(-c2ccc(-c3ccc(Cl)cc3)n2-c2ccccc2C(F)(F)F)nc1` (single isomer, unassigned) [Atropisomer A-4, 6-[5-(4-chlorophenyl)-1-[2-(trifluoromethyl)phenyl]pyrrol-2-yl]-N-[2-(dimethylamino)ethyl]pyridine-3-carboxamide]: the GI50 in series [5] came to 0.254 µM; with KRAS G12V HeLa cell line, 0.153 µM. Half-maximal inhibition in the series with U87MG cells [4] (listed as A-4) (IC50) was put at 3.94 µM.

Turning to `CN(C)CCNC(=O)c1ccc(-c2ccc(-c3ccc(Cl)cc3)n2-c2ccccc2C(F)(F)F)cc1` [(+)-L-tartaric acid salt, (R)-2,4-[5-(4-chlorophenyl)-1-[2-(trifluoromethyl)-phenyl]pyrrol-2-yl]-N-[2-(dimethylamino)-ethyl]benzamide (+)-L-tartaric acid salt], the surface moisture uptake in series [6] was less than 1%. Besides, in series [7], the “water solubility compared with free base” value is “improved water solubility over the free base”.
